Among the test systems are A498 renal; A549 NSCLC; K-562 leukemia; KM12 colon; M14 melanoma; SF-268 CNS; SW-620 colon; MCF7 breast; MDA-MB-435.
What all share (assay): NCI tumour cell line growth inhibition, 48 h

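Tested at 5 concentrations; 48 h exposure; 96-well plates; endpoints linearly interpolated, else capped at highest concentration. GI50 marks 50% less growth. TGI marks complete inhibition of growth.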

As to `CCOC(=O)C1=C(NNC(=O)Cc2ccccc2)CSC1=Nc1ccccc1`, the TGI in the test on A498 renal, in the test with A549 NSCLC, with K-562 leukemia, in the test with KM12 colon, in the test with M14 melanoma and in the test with SF-268 CNS was more than 100 µM throughout. For the same compound, the TGI with SW-620 colon was more than 100 µM.
As for `CCCCCCCCC(=O)N(C)C1C2CN3CCC(O2)C13` (stereo not drawn), the TGI in the test on A498 renal, in the test with A549 NSCLC, in the test with K-562 leukemia, with KM12 colon, with M14 melanoma and with SF-268 CNS was more than 100 µM throughout. In the test with SW-620 colon, this compound yielded a TGI of more than 100 µM.
Take `O=c1c(Sc2c(O)c3ccccc3c3ccccc3c2=O)c(O)c2ccccc2c2ccccc12`: the TGI with A549 NSCLC was more than 100 µM; with K-562 leukemia it was more than 100 µM; in the test on KM12 colon, more than 100 µM; in the test with M14 melanoma it was more than 100 µM; with SF-268 CNS, 99 µM; in the test on SW-620 colon, more than 100 µM.
Consider `[C-]#[O+].[C-]#[O+].[C-]#[O+].[C-]#[O+].[Ir].[Ir].[O-]c1ccc2ccccc2c1C=Nc1ccc(N=Cc2c([O-])ccc3ccccc23)cc1`, for which the GI50 is more than 100 µM in the test with A549 NSCLC; 40.1 µM with K-562 leukemia; more than 100 µM in the test with KM12 colon; more than 100 µM with M14 melanoma; more than 100 µM in the test on SF-268 CNS; more than 100 µM in the test with SW-620 colon. In addition, the TGI in the test with A549 NSCLC, in the test on K-562 leukemia, in the test with KM12 colon, with M14 melanoma, with SF-268 CNS and in the test on SW-620 colon was more than 100 µM each time.
For `OCC(O)C(OC1OC(CO)C(O)C(O)C1O)c1nn(-c2ccccc2)c2nc3cc(Cl)c(Cl)cc3cc12` (stereo not drawn), the TGI in the test with A498 renal, in the test with K-562 leukemia, in the test on KM12 colon, in the test on M14 melanoma and with SF-268 CNS was more than 100 µM in each case.
With `CC1CC2C(=O)N(c3ccccc3)C(=O)C2c2c1c1ccccc1n2Cc1ccccc1` (stereo not drawn), the TGI with A549 NSCLC, in the test on K-562 leukemia, in the test on KM12 colon, with M14 melanoma, in the test with SF-268 CNS and with SW-620 colon was more than 100 µM throughout.
As for `Cn1ccc2c(c1=O)C(=O)c1nccc3c1c-2nc1ccccc13`, the GI50 was 12.5 µM in the test on A498 renal; 1.47 µM in the test with A549 NSCLC; 1.84 µM in the test on M14 melanoma; 0.871 µM with MCF7 breast; 1.62 µM in the test with MDA-MB-435; 1.28 µM in the test with SW-620 colon. Besides, the TGI came out at 25.9 µM in the test on A498 renal; 2.9 µM with A549 NSCLC; 3.52 µM in the test with M14 melanoma; 2.34 µM with MCF7 breast; 3.13 µM in the test on MDA-MB-435; 3.17 µM in the test with SW-620 colon.
With `O=C(O)CCSCCCN1C(=O)c2ccccc2C1=O`, the TGI with A549 NSCLC, in the test on K-562 leukemia, in the test on KM12 colon, in the test on SF-268 CNS and with SW-620 colon was more than 100 µM each time.
`Cc1cc(C)c2c(c1)Nc1ccccc1P2c1ccccc1` (stereo not drawn): the TGI with A549 NSCLC, with K-562 leukemia, in the test on M14 melanoma, with SF-268 CNS and in the test on SW-620 colon was more than 100 µM throughout.
As to `NNC(=O)CCC(=O)Nc1cc(Cl)c(Cl)cc1Cl`, the TGI in the test with A498 renal, in the test on A549 NSCLC, in the test with K-562 leukemia, in the test on KM12 colon, with M14 melanoma and in the test on SF-268 CNS was more than 100 µM each time. The compound also had a TGI in the test on SW-620 colon of more than 100 µM.
Take `O=C1OC(CC(=O)c2ccc(Cl)cc2Cl)C(Cl)=C1Cl` (stereo not drawn): the TGI in the test with A498 renal is more than 100 µM; in the test on A549 NSCLC, more than 100 µM; in the test on K-562 leukemia, more than 76.7 µM; in the test with KM12 colon, more than 100 µM; with M14 melanoma it was more than 91.9 µM; with SF-268 CNS, 62.7 µM. In the test on SW-620 colon, the TGI is 38.1 µM.
In the case of `Cc1ccc(NC(=O)c2cc3ccccc3c(N=Nc3ccccc3O)c2O)c(C)c1`, the TGI with A549 NSCLC was 12.7 µM; in the test with K-562 leukemia, more than 100 µM; in the test on KM12 colon, 14.8 µM; with M14 melanoma, 12.7 µM; with MCF7 breast it was 13.7 µM; in the test with SF-268 CNS, 10.5 µM. Moreover, the TGI in the test on SW-620 colon amounted to 11.8 µM.
Regarding `O=c1c2cc(Br)ccc2nc(-c2ccccc2Cl)n1NCC1(O)OCC(O)C(O)C1O` (stereo not drawn), the TGI in the test with A498 renal, with A549 NSCLC, with K-562 leukemia, with KM12 colon, in the test on M14 melanoma and in the test on SF-268 CNS was more than 100 µM in each case. The compound further had a TGI in the test on SW-620 colon of more than 100 µM.
As for `CS(=O)(=O)OCCn1cnc2nc(NC(=O)c3ccccc3)[nH]c(=O)c21`, the TGI with A498 renal, in the test on A549 NSCLC, in the test with K-562 leukemia, in the test with KM12 colon, in the test with M14 melanoma and in the test on SF-268 CNS was more than 100 µM in each case. This compound also gave a TGI with SW-620 colon of more than 100 µM.
For the compound `CC(=O)Nc1ccc(/C=N\N2C(=O)c3ccccc3C2=O)cc1`, the TGI in the test on A498 renal, in the test with A549 NSCLC, in the test on K-562 leukemia, with KM12 colon, with M14 melanoma and in the test on SF-268 CNS was more than 100 µM throughout. The compound further displayed a TGI in the test with SW-620 colon of more than 100 µM.
In the case of `CN(C)CCNC(=O)c1ccc(C(=O)NCCN(C)C)c2nc3ccccc3cc12`, the TGI was 3.93 µM in the test with A498 renal; 13 µM in the test on A549 NSCLC; more than 30 µM with K-562 leukemia; 4.14 µM with KM12 colon; 3.44 µM in the test with M14 melanoma; 6.79 µM with SF-268 CNS. The compound also showed a TGI with SW-620 colon of 9.56 µM.
For `Fc1cccc2cc3ccc4cccc5ccc(c12)c3c45`, the TGI with A498 renal, in the test on A549 NSCLC, with K-562 leukemia, with KM12 colon, in the test on M14 melanoma and in the test with SF-268 CNS was more than 100 µM each time. Also, the TGI in the test with SW-620 colon is more than 100 µM.
For `O=c1[nH]nc2ccccc2c1Cl`, the TGI stood at 33.2 µM in the test on A498 renal; 91.5 µM in the test with A549 NSCLC; 24.7 µM in the test with K-562 leukemia; 26.6 µM in the test on KM12 colon; 25.6 µM with M14 melanoma; 41.9 µM in the test with SF-268 CNS. Also, the TGI in the test with SW-620 colon was found to be 34.2 µM.

Values taken from PubChem BioAssay (NCI).
